Converted amounts (≈) assume the structure as drawn.
How the values were obtained:
Experiment in all cases: Broth microdilution MIC (NCCLS)
Type in all cases: cell-based
[1] = tested on: S. aureus Spain #356 (Meth^R); settings: Staphylococcus aureus, 24 h
Summary of the method: (§1)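 MIC = lowest drug concentration with no bacterial growth, read at 650 nm and visually after 24 h at 35° C. Assay run in MHB per NCCLS, inoculum 5×10^5 CFU/mL, compounds serially diluted 2-fold in plate.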

E. faecium VanA (Van^R) = settings: Enterococcus faecium
Summary of the method: as §1

[2] = tested on: S. aureus 76 (Meth^R)(lac^+); settings: Staphylococcus aureus
Summary of the method: as §1

[3] = tested on: S. aureus PC1 (Meth^S)(lac^+); settings: Staphylococcus aureus
Summary of the method: as §1

S. aureus ATCC 29213 = settings: Staphylococcus aureus, ATCC29213; S. aureus ATCC 29213; Mueller-Hinton broth, 24 h at 35° C.; read-out: MIC
Summary of the method: as §1

E. faecium ATCC 35667 = settings: Enterococcus faecium, ATCC35667
Summary of the method: as §1

E. faecalis VanB (Van^R) = settings: Enterococcus faecalis
Summary of the method: as §1

[4] = tested on: S. haemolyticus 05 (Meth^R); settings: Staphylococcus haemolyticus
Summary of the method: as §1

[5] = tested on: S. aureus ATCC 13709 (Meth^S); settings: Staphylococcus aureus, ATCC13709, S. aureus ATCC 13709 (Meth^S); read-out: MIC
Summary of the method: as §1

P. aeruginosa ATCC 27853 = settings: Pseudomonas aeruginosa, ATCC27853
Summary of the method: (§2)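 Endpoint: lowest concentration preventing visible or OD650-detected growth. Conditions: Mueller-Hinton broth, serial 2-fold compound dilutions, 5×10^5 CFU/mL, 35° C for 24 h. Inoculum counts were checked by plating on TSA.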

E. faecium A491 (Amp^R) = settings: Enterococcus faecium
Summary of the method: as §1

[6] = tested on: S. aureus ATCC 33593 (Meth^R); settings: Staphylococcus aureus, ATCC33593
Summary of the method: as §1

E. faecalis ATCC 29212 = settings: Enterococcus faecalis, ATCC29212
Summary of the method: as §1

[7] = tested on: S. aureus Col (Meth^R)(lac^−); settings: Staphylococcus aureus
Summary of the method: as §1

E. coli ATCC25992 = settings: Escherichia coli
Summary of the method: as §2

| SMILES | MIC [1] | MIC (E. faecium VanA (Van^R)) | MIC [2] | MIC [3] | MIC (S. aureus ATCC 29213) | MIC (E. faecium ATCC 35667) | MIC (E. faecalis VanB (Van^R)) | MIC [4] | MIC [5] | MIC (P. aeruginosa ATCC 27853) | MIC (E. faecium A491 (Amp^R)) | MIC [6] | MIC (E. faecalis ATCC 29212) | MIC [7] | MIC (E. coli ATCC25992) |
| --- | --- | --- | --- | --- | --- | --- | --- | --- | --- | --- | --- | --- | --- | --- | --- |
| NCCSCc1nc(N)sc1SC1=C(C(=O)O)N2C(=O)[C@@H](NC(=O)/C(=N\O)c3nc(N)sc3Cl)[C@H]2SC1 [Cmpd 3, (7R)-7-[(Z)-2-(2-amino-5-chlorothiazol-4-yl)-2-(hydroxyimino)acetamido]-3-[4-(2-aminoethylthiomethyl)-2-amino-1,3-thiazol-5-ylthio]-3-cephem-4-carboxylic acid] | 1 mg/L (≈ 1.6 µM) | 8 mg/L (≈ 12.8 µM) | 1 mg/L (≈ 1.6 µM) | 0.25 mg/L (≈ 0.401 µM) | 0.25 mg/L (≈ 0.401 µM) | 1 mg/L (≈ 1.6 µM) | 0.25 mg/L (≈ 0.401 µM) | 1 mg/L (≈ 1.6 µM) | 0.13 mg/L (≈ 0.209 µM) | 4 mg/L (≈ 6.42 µM) |  |  |  |  |  |
| NCCSCc1nc(SCCN)sc1SC1=C(C(=O)O)N2C(=O)[C@@H](NC(=O)/C(=N\O)c3nc(N)sc3Cl)[C@H]2SC1 [Cmpd 11, (7R)-7-[(Z)-2-(2-amino-5-chlorothiazol-4-yl)-2-(hydroxyimino)acetamido]-3-[4-(2-aminoethylthiomethyl)-2-aminoethylthio-1,3-thiazol-5-ylthio]-3-cephem-4-carboxylic acid] | 0.5 mg/L (≈ 0.732 µM) | 4 mg/L (≈ 5.85 µM) | 0.5 mg/L (≈ 0.732 µM) | 0.13 mg/L (≈ 0.19 µM) | 0.06 mg/L (≈ 0.0878 µM) | 0.5 mg/L (≈ 0.732 µM) | 0.06 mg/L (≈ 0.0878 µM) | 0.5 mg/L (≈ 0.732 µM) | 0.13 mg/L (≈ 0.19 µM) | 2 mg/L (≈ 2.93 µM) | 4 mg/L (≈ 5.85 µM) | 0.5 mg/L (≈ 0.732 µM) | 0.06 mg/L (≈ 0.0878 µM) | 0.5 mg/L (≈ 0.732 µM) | 2 mg/L (≈ 2.93 µM) |
| NCCSCc1ncccc1SC1=C(C(=O)O)N2C(=O)[C@@H](NC(=O)/C(=N\O)c3nc(N)sc3Cl)[C@H]2SC1 [Cmpd 13, (7R)-7-[(Z)-2-(2-amino-5-chlorothiazol-4-yl)-2-(hydroxyimino)acetamido]-3-[2-(2-aminoethylthiomethyl)pyrid-3-ylthio]-3-cephem-4-carboxylic acid] |  |  |  | 0.25 mg/L (≈ 0.415 µM) | 0.25 mg/L (≈ 0.415 µM) |  |  |  |  |  |  |  |  | 0.5 mg/L (≈ 0.83 µM) |  |
| N=C(N)NCCSCc1ncccc1SC1=C(C(=O)O)N2C(=O)[C@@H](NC(=O)/C(=N\O)c3nsc(N)n3)[C@H]2SC1 [Cmpd 14, (7R)-7-[(Z)-2-(5-amino-1,2,4-thiadiazol-3-yl)-2-(hydroxyimino)acetamido]-3-[2-(2-guanidinoethylthiomethyl)pyrid-3-ylthio]-3-cephem-4-carboxylic acid] |  |  |  |  |  |  | 0.25 mg/L (≈ 0.409 µM) |  |  |  |  |  |  |  |  |
| NCCSCc1ncccc1SC1=C(C(=O)O)N2C(=O)[C@@H](NC(=O)/C(=N\O)c3nsc(N)n3)[C@H]2SC1 [Cmpd 17, (7R)-7-[(Z)-2-(5-amino-1,2,4-thiadiazol-3-yl)-2-(hydroxyimino)acetamido]-3-[2-(2-aminoethylthiomethyl)pyrid-3-ylthio]-3-cephem-4-carboxylic acid] |  |  |  | 0.25 mg/L (≈ 0.44 µM) | 0.25 mg/L (≈ 0.44 µM) |  |  |  | 0.25 mg/L (≈ 0.44 µM) |  |  |  |  |  |  |
| NCCSCc1cnccc1SC1=C(C(=O)O)N2C(=O)[C@@H](NC(=O)/C(=N\O)c3nsc(N)n3)[C@H]2SC1 [Cmpd 18, (7R)-7-[(Z)-2-(5-amino-1,2,4-thiadiazol-3-yl)-2-(hydroxyimino)acetamido]-3-[3-(2-aminoethylthiomethyl)pyrid-4-ylthio]-3-cephem-4-carboxylic acid] | 1 mg/L (≈ 1.76 µM) | 1 mg/L (≈ 1.76 µM) | 1 mg/L (≈ 1.76 µM) | 0.13 mg/L (≈ 0.229 µM) | 0.13 mg/L (≈ 0.229 µM) | 0.5 mg/L (≈ 0.879 µM) | 0.25 mg/L (≈ 0.44 µM) | 2 mg/L (≈ 3.52 µM) | 0.13 mg/L (≈ 0.229 µM) | > 32 mg/L | 32 mg/L (≈ 56.3 µM) | 1 mg/L (≈ 1.76 µM) | 0.13 mg/L (≈ 0.229 µM) | 1 mg/L (≈ 1.76 µM) | 0.5 mg/L (≈ 0.879 µM) |
| NCCSCc1cnccc1SC1=C(C(=O)O)N2C(=O)C(NC(=O)/C(=N\O)c3csc(N)n3)C2SC1 (centres unmarked) [Cmpd 19] | 2 mg/L (≈ 3.52 µM) | 4 mg/L (≈ 7.05 µM) | 2 mg/L (≈ 3.52 µM) | 0.5 mg/L (≈ 0.881 µM) | 0.5 mg/L (≈ 0.881 µM) | 2 mg/L (≈ 3.52 µM) | 1 mg/L (≈ 1.76 µM) | 4 mg/L (≈ 7.05 µM) | 0.5 mg/L (≈ 0.881 µM) | > 32 mg/L | > 32 mg/L | 2 mg/L (≈ 3.52 µM) | 0.5 mg/L (≈ 0.881 µM) | 2 mg/L (≈ 3.52 µM) | 4 mg/L (≈ 7.05 µM) |
| NCCSCc1cnccc1SC1=C(C(=O)O)N2C(=O)[C@@H](NC(=O)/C(=N\O)c3nc(N)sc3Cl)[C@H]2SC1 [Cmpd 20, (7R)-7-[(Z)-2-(2-amino-5-chlorothiazol-4-yl)-2-(hydroxyimino)acetamido]-3-[3-(2-aminoethylthiomethyl)pyrid-4-ylthio]-3-cephem-4-carboxylic acid] | 1 mg/L (≈ 1.66 µM) | 0.25 mg/L (≈ 0.415 µM) | 1 mg/L (≈ 1.66 µM) | 0.25 mg/L (≈ 0.415 µM) | 0.25 mg/L (≈ 0.415 µM) | 0.5 mg/L (≈ 0.83 µM) | 0.13 mg/L (≈ 0.216 µM) | 2 mg/L (≈ 3.32 µM) | 0.13 mg/L (≈ 0.216 µM) | > 32 mg/L | 8 mg/L (≈ 13.3 µM) | 1 mg/L (≈ 1.66 µM) | 0.06 mg/L (≈ 0.0996 µM) | 0.5 mg/L (≈ 0.83 µM) | 8 mg/L (≈ 13.3 µM) |
| NCCSCc1ccncc1SC1=C(C(=O)O)N2C(=O)[C@@H](NC(=O)/C(=N\O)c3nc(N)sc3Cl)[C@H]2SC1 [Cmpd 21, (7R)-7-[(Z)-2-(2-amino-5-chlorothiazol-4-yl)-2-(hydroxyimino)acetamido]-3-[4-(2-aminoethylthiomethyl)pyrid-3-ylthio]-3-cephem-4-carboxylic acid] |  |  |  | 0.25 mg/L (≈ 0.415 µM) |  |  |  |  |  |  |  |  |  |  |  |
| NCCSCc1ncsc1SC1=C(C(=O)O)N2C(=O)[C@@H](NC(=O)/C(=N\O)c3cccc(N)n3)[C@H]2SC1 [Cmpd 23, (7R)-7-[(Z)-2-(2-aminopyrid-6-yl)-2-(hydroxyimino)acetamido]-3-[4-(2-aminoethylthiomethyl)-1,3-thiazol-5-ylthio]-3-cephem-4-carboxylic acid] | 2 mg/L (≈ 3.52 µM) | 2 mg/L (≈ 3.52 µM) | 2 mg/L (≈ 3.52 µM) | 0.13 mg/L (≈ 0.229 µM) | 0.13 mg/L (≈ 0.229 µM) | 2 mg/L (≈ 3.52 µM) | 0.5 mg/L (≈ 0.881 µM) | 4 mg/L (≈ 7.05 µM) | 0.06 mg/L (≈ 0.106 µM) | > 32 mg/L |  | 1 mg/L (≈ 1.76 µM) | 0.25 mg/L (≈ 0.44 µM) | 1 mg/L (≈ 1.76 µM) | 16 mg/L (≈ 28.2 µM) |
| NCCSCc1cnccc1SC1=C(C(=O)O)N2C(=O)[C@@H](NC(=O)/C(=N\O)c3cccc(N)n3)[C@H]2SC1 [Cmpd 24, (7R)-7-[(Z)-2-(2-aminopyrid-6-yl)-2-(hydroxyimino)acetamido]-3-[3-(2-aminoethylthiomethyl)pyrid-4-ylthio]-3-cephem-4-carboxylic acid] | 2 mg/L (≈ 3.56 µM) | 2 mg/L (≈ 3.56 µM) | 1 mg/L (≈ 1.78 µM) | 0.25 mg/L (≈ 0.445 µM) | 0.25 mg/L (≈ 0.445 µM) | 1 mg/L (≈ 1.78 µM) | 0.5 mg/L (≈ 0.89 µM) | 2 mg/L (≈ 3.56 µM) | 0.25 mg/L (≈ 0.445 µM) | > 32 mg/L | 32 mg/L (≈ 57 µM) | 2 mg/L (≈ 3.56 µM) | 0.25 mg/L (≈ 0.445 µM) | 1 mg/L (≈ 1.78 µM) | 16 mg/L (≈ 28.5 µM) |
| N=C(N)NCCSCc1cnccc1SC1=C(C(=O)O)N2C(=O)[C@@H](NC(=O)/C(=N\O)c3nsc(N)n3)[C@H]2SC1 [Cmpd 25, (7R)-7-[(Z)-2-(5-amino-1,2,4-thiadiazol-3-yl)-2-(hydroxyimino)acetamido]-3-[3-(2-guanidinoethylthiomethyl)pyrid-4-ylthio]-3-cephem-4-carboxylic acid] | 1 mg/L (≈ 1.64 µM) | 1 mg/L (≈ 1.64 µM) | 1 mg/L (≈ 1.64 µM) | 0.13 mg/L (≈ 0.213 µM) | 0.25 mg/L (≈ 0.409 µM) | 0.5 mg/L (≈ 0.819 µM) | 0.25 mg/L (≈ 0.409 µM) | 2 mg/L (≈ 3.27 µM) | 0.13 mg/L (≈ 0.213 µM) | > 32 mg/L | 32 mg/L (≈ 52.4 µM) | 1 mg/L (≈ 1.64 µM) | 0.13 mg/L (≈ 0.213 µM) | 1 mg/L (≈ 1.64 µM) | 1 mg/L (≈ 1.64 µM) |
